Measurements from BindingDB's records for doi:10.7270/Q2VX0F3D (Burnham Center For Chemical Genomics, 2012).

Target: T1, Corticotropin-releasing factor-binding protein (Homo sapiens, UniProt P24387)
T1 sequence (P24387 whole entry): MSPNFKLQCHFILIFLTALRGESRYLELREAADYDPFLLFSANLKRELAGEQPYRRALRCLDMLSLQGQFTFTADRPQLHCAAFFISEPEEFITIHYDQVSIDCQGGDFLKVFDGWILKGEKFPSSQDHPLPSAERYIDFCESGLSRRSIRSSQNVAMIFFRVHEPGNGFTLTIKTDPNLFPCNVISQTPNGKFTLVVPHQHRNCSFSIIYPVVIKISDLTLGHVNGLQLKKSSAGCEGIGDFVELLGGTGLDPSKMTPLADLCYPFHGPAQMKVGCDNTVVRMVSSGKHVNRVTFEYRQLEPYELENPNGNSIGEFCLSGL
Test: activators of CRF receptor 2 with binding protein – uHTS hits, confirmation (AID 602473)

Row | SMILES | EC50 [µM]
1 | CN(CCOc1ccc(Cc2sc(=O)[nH]c2O)cc1)c1ccccn1 | > 53
2 | Cc1c(N=C2C(=O)N(c3ccccc3Cl)C(=O)C2Cl)c(=O)n(-c2ccccc2)n1C (configuration not stated) | > 53
3 | Cc1cc2c(cc1C)NC(c1c(C)n(C)n(-c3ccccc3)c1=O)C1C(=O)CC(C)(C)CC1=N2 (configuration not stated) | > 53
4 | N#CC1C(=N)OC2=C(C(=O)CC(c3ccccc3)C2)C1c1ccc2c(c1)OCO2 (configuration not stated) | > 53
5 | Clc1ccc(C2=Nc3ncnn3C(c3ccco3)C2)cc1 (configuration not stated) | 8.29
6 | COc1cccc(C(=O)Cc2nc3ccc(C(=O)NCCc4ccc(Cl)cc4)cc3[nH]c2=O)c1 | 5.02
7 | Cc1ccc(-n2c(O)c3n(-c4ccccc4)[nH]c(C(=O)c4ccccc4)c-3c2=O)cc1 | 22.2
8 | COc1ccccc1-n1c(O)c2n(-c3ccc(C)cc3)[nH]c(C(=O)c3ccccc3)c-2c1=O | 5.27
9 | N#CC(C(=O)COc1ccc(Cl)cc1)c1nc2ccccc2s1 (configuration not stated) | > 53
10 | CCOc1ccc(C2CC(c3ccc(C)cc3)=Nc3nnnn32)cc1 (configuration not stated) | > 53
11 | Cc1ccccc1COc1ccc(C(=O)C2C(=O)C(=O)N(CCCn3ccnc3)C2c2ccco2)cc1 (configuration not stated) | > 53
12 | COc1cc(C2c3c(-c4ccccn4)n[nH]c3OC(=N)C2C#N)cc(OC)c1OC (configuration not stated) | > 53
13 | O=C(Cc1sc(N=NC=CCc2ccccc2)nc1O)Nc1ccc(Cl)c(Cl)c1 | > 53
14 | CN1C(=O)C(=CCC=Nc2ccccc2)C(=O)N(C)C1=O | > 53
15 | CC1(C)CC(=O)C2CNc3ccccc3N=C2C1 (configuration not stated) | > 53
16 | COC(=O)C1=C(C)NC(=O)C1=CNc1ccc(Oc2ccccc2)cc1 | > 53
17 | O=C(O)c1ccc(CN=Nc2cccc(C(F)(F)F)c2)cc1 | > 53
18 | CCOc1ccc(C2=Nc3ncnn3C(c3ccccc3)C2)cc1 (configuration not stated) | > 53
19 | COc1cc2c(cc1OC)C(CC(=O)c1ccc(OC)c([N+](=O)[O-])c1)=NCC2 | > 53
20 | COc1ccc(-n2c(O)cc(-c3ccc([N+](=O)[O-])cc3)c2O)cc1 | > 53
21 | Cc1ccc(-n2c(O)cc(=O)[nH]c2=O)c(C)c1 | > 53
22 | CCCCCCC1=Cc2c/c(=C(/N)NNC(=O)c3ccncc3)c(=O)oc2=CC1=O | 1.11
23 | Cc1ccc2nc(N3C(=O)C(=O)C(C(=O)c4ccco4)C3c3cccc(O)c3)sc2c1 (configuration not stated) | > 53
24 | COc1cc(/C=C2\CCC(C)C3=C(c4cc(OC)c(OC)c(OC)c4)C(C#N)C(=N)OC32)cc(OC)c1OC (configuration not stated) | > 53

Row | SMILES | EC50 [µM]
25 | CC1=CC(C)(C(Cl)(Cl)Cl)C(C)C=C1N=O (configuration not stated) | > 53
26 | CCNC(=S)N(CCc1ccc(S(N)(=O)=O)cc1)c1cc(O)n(-c2ccccc2)c1O [1-(2,5-dioxo-1-phenyl-3-pyrrolidinyl)-3-ethyl-1-[2-(4-sulfamoylphenyl)ethyl]thiourea] | 18.5
27 | Cc1ccc(C2CC(c3ccccc3)=Nc3nc(-n4c(O)ccc4O)nn32)cc1 (configuration not stated) [1-[7-(4-methylphenyl)-5-phenyl-1,7-dihydro-[1,2,4]triazolo[1,5-a]pyrimidin-2-yl]pyrrolidine-2,5-dione] | > 53
28 | CCOc1ccc(C2C(C#N)=C3Sc4ccccc4N3C(=N)C2C#N)cc1 (configuration not stated) [1-amino-3-(4-ethoxyphenyl)-3H-pyrido[2,1-b][1,3]benzothiazole-2,4-dicarbonitrile] | 8.06
29 | Oc1ccc(CN=Nc2nc(N3CCCCCC3)nc(N3CCCCCC3)n2)c(O)c1 [2,4-dihydroxybenzaldehyde (4,6-diazepan-1-yl-1,3,5-triazin-2-yl)hydrazone] | > 53
30 | COc1cc(C2C(C(=O)c3ccco3)C(=O)C(=O)N2c2cc(C)on2)cc(Br)c1O (configuration not stated) [2-(3-bromanyl-5-methoxy-4-oxidanyl-phenyl)-3-(furan-2-ylcarbonyl)-1-(5-methyl-1,2-oxazol-3-yl)-4-oxidanyl-2H-pyrrol-5-one] | > 53
31 | C=C1C(c2ccc(Cl)cc2)=[N+](O)C(c2ccccc2)=CN1[O-] [2-(4-chlorophenyl)-3-methyl-4-oxido-6-phenylpyrazin-1-ium 1-oxide] | > 53
32 | N#Cc1cc2ccccc2nc1SCc1cccnc1 [2-(Pyridin-3-ylmethylsulfanyl)-quinoline-3-carbonitrile] | > 53
33 | CCCCCCc1cc2cc(C(=O)NCc3ccccc3)c(N)oc-2cc1=O [2-amino-6-hexyl-7-oxo-N-(phenylmethyl)-1-benzopyran-3-carboxamide] | 4.2
34 | COc1ccc(C2c3ccc(O)cc3OC(=N)C2C#N)cc1C (configuration not stated) [2-amino-7-hydroxy-4-(4-methoxy-3-methylphenyl)-4H-1-benzopyran-3-carbonitrile] | > 53
35 | CCCCCCc1cc2cc(C(=O)NC)c(N)oc-2cc1=O [2-azanyl-6-hexyl-N-methyl-7-oxidanylidene-chromene-3-carboxamide] | 3.06
36 | CCCC1=Nc2nc(C)nn2C(c2cccnc2)C1C(=O)OCC (configuration not stated) [2-methyl-5-propyl-7-(3-pyridinyl)-1,7-dihydro-[1,2,4]triazolo[1,5-a]pyrimidine-6-carboxylic acid ethyl ester] | > 53
37 | Oc1nc(N=NCc2ccc(F)cc2)sc1-c1ccccc1 [2-{N'-[1-(4-Fluoro-phenyl)-meth-(E)-ylidene]-hydrazino}-5-phenyl-thiazol-4-one] | > 53
38 | CC1C2=C(CC(C)(C)CC2=O)N=C2CC(C)(C)CC(=O)C21 (configuration not stated) [3,3,6,6,9-pentamethyl-2,4,5,7,9,10-hexahydroacridine-1,8-dione] | > 53
39 | COc1ccccc1C1C(C(=O)c2sc(C)nc2C)C(=O)C(=O)N1CCN1CCOCC1 (configuration not stated) [3-(2,4-dimethyl-1,3-thiazole-5-carbonyl)-4-hydroxy-2-(2-methoxyphenyl)-1-(2-morpholin-4-ylethyl)-2H-pyrrol-5-one] | > 53
40 | C=CCOc1ccc(C2C(C(=O)c3ccco3)C(=O)C(=O)N2c2nnc(C)s2)cc1 (configuration not stated) [3-(furan-2-carbonyl)-4-hydroxy-1-(5-methyl-1,3,4-thiadiazol-2-yl)-2-(4-prop-2-enoxyphenyl)-2H-pyrrol-5-one] | > 53
41 | Cc1cccc(N2C(=O)C(=O)C(C(=O)c3cccs3)C2c2ccc(C(C)C)cc2)n1 (configuration not stated) [3-Hydroxy-5-(4-isopropyl-phenyl)-1-(6-methyl-pyridin-2-yl)-4-(thiophene-2-carbonyl)-1,5-dihydro-pyrrol-2-one] | 11.3
42 | O=C(Cc1nc2ccccc2n(-c2ccccc2)c1=O)c1ccc(F)cc1 [3-[2-(4-fluorophenyl)-2-oxoethylidene]-1-phenyl-3,4-dihydro-2(1H)-quinoxalinone] | 7.18
43 | O=c1c(CN=Nc2ccccc2)c(Sc2nnnn2-c2ccccc2)nc2ccccn12 [3-[(phenylhydrazinylidene)methyl]-2-(1-phenyltetrazol-5-yl)sulfanylpyrido[1,2-a]pyrimidin-4-one] | 10.1
44 | O=C(c1ccccc1)c1[nH]n(-c2ccccc2)c2c(O)n(-c3ccccc3)c(=O)c1-2 [3-benzoyl-1,5-diphenyl-3a,6a-dihydropyrrolo[3,4-c]pyrazole-4,6-dione] | 14.6
45 | CC(=O)C1C(=O)C(=O)N(Cc2ccccc2)C1c1ccc(F)cc1 (configuration not stated) [3-ethanoyl-2-(4-fluorophenyl)-4-oxidanyl-1-(phenylmethyl)-2H-pyrrol-5-one] | > 53
46 | Cc1cc(=O)oc2c1ccc1oc(C(N=O)c3ccccc3)c(C)c12 (configuration not stated) [4,9-dimethyl-8-(N-oxidanyl-C-phenyl-carbonimidoyl)furo[2,3-h]chromen-2-one] | > 53
47 | CSCSC1=NC(C)=C(C(C)=O)C(c2ccccc2Cl)C1C#N (configuration not stated) [4-(2-chlorophenyl)-5-ethanoyl-6-methyl-2-(methylsulfanylmethylsulfanyl)-1,4-dihydropyridine-3-carbonitrile] | > 53
